Active and inactive are the calls of the source.
Assays:
[1] = Counterscreen for IDE inhibitors: Luminescence-based cell-based high throughput dose response assay to identify compounds that are cytotoxic to HEK cells. [Related pubchem assays: 434962 (Primary screen (IDE inhibitors in singlicate)), 449730 (Counterscreen (Cytotoxicity in triplicate)), 435028 (Confirmation (IDE inhibitors in triplicate)) …; type: functional; conditions: HEK293
[2] = mitochondrial function rescue without frataxin homolog – Friedreich's ataxia, plus single-dose screen, dose response (AID 1465); type: functional;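 also: yeast depleted of Yfh1p frataxin homolog grown on glycerol needing respiration; WST-1 tetrazolium dye reduction as measure of cellular dehydrogenase metabolic activity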
[3] = molecular target: T1, Insulin-degrading enzyme (Homo sapiens, UniProt P14735); experiment: Dose Response: Fluorescence polarization-based cell-based high throughput dose response assay for inhibitors of insulin-degrading enzyme (IDE). [Related pubchem assays: 434962 (Primary screen (IDE inhibitors in singlicate)), 449730 (Counterscreen (Cytotoxicity in triplicate)), 435028 (Confirmation (IDE inhibitors in triplicate)), 434984 (Summary …; type: functional
T1 sequence (P14735 whole entry): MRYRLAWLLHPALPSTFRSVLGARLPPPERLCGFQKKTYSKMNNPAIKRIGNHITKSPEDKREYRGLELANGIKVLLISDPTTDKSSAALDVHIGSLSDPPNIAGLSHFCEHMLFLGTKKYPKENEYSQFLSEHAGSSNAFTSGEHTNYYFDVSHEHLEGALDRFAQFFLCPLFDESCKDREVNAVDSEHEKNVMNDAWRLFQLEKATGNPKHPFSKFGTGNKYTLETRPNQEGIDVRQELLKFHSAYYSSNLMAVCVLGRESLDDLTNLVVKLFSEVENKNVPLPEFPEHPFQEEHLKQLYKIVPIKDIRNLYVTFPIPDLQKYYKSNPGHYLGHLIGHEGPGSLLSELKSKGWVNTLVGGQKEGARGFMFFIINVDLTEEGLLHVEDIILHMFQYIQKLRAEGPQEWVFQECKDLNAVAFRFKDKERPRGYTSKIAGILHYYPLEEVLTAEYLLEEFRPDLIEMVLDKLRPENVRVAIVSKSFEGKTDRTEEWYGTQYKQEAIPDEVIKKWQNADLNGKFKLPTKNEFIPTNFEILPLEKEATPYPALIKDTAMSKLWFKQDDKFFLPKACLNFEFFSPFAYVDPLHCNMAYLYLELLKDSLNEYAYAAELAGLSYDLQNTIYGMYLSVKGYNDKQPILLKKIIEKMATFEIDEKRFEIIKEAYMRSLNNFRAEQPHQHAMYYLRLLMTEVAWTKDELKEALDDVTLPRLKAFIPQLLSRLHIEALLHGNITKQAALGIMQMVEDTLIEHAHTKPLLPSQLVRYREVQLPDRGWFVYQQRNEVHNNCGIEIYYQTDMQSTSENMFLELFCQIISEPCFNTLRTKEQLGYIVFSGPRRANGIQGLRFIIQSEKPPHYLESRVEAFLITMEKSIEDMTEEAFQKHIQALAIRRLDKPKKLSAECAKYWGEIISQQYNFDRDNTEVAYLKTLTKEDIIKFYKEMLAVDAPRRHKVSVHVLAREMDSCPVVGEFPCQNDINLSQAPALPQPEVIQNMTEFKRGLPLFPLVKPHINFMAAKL

[4] = alpha-synuclein stem-loop luciferase translation blockers – H4 neuroglioma cells, luminescence, confirmation (AID 1988); type: functional, cell-based
[5] = luciferase reporter signal reduction – luminescence, H4-C neuroglioblastoma cells, dose response (AID 2458); type: functional, cell-based;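 also: H4 neuroglioblastoma cells stably carrying a luciferase reporter gene fusion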
[6] = cells; type: functional, cell-based
[7] = luciferase reporter signal suppression in cells – H4 neuroglioma cells, luminescence, dose response (AID 1990); type: functional, cell-based
[8] = Luminescence Cell-Based Dose Response HTS to Identify Inhibitors of 5'UTR Stem-Loop Driven Prion Protein mRNA Translation in H4 Neuroglioblastoma Cells. [Related pubchem assays: 1827 (Project Summary), 1813 (Primary HTS)]; type: functional
[9] = molecular target: Photoreceptor-specific nuclear receptor (Homo sapiens, UniProt Q9Y5X4); type: functional, cell-based;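 also: CHO-S cells with Gal4-NCOR and VP16-NR2E3 two-hybrid luciferase reporter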
[10] = alpha-synuclein stem-loop translation blockers – luminescence, H4 neuroglioblastoma cells, dose confirmation, confirmation (AID 2454); type: functional, cell-based;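 also: H4 neuroglioblastoma cells carrying an alpha-synuclein 5'UTR luciferase reporter; potency for inhibition of the luciferase signal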
[11] = molecular target: Ion channel NompC (Danio rerio, UniProt Q7T1G6); experiment: Fluorescence counterscreen assay for TRPML3 agonists: dose response cell-based high-throughput screening assay to identify agonists of the transient receptor potential channel N1 (TRPN1). [Related pubchem assays: 1526, 1424, 1448 ]; type: functional
[12] = molecular target: Mucolipin-3 (Homo sapiens, UniProt Q8TDD5); experiment: Dose response cell-based high-throughput screening assay for agonists of the transient receptor potential channel ML3 (TRPML3). [Related pubchem assays: 1526, 1424, 1448 ]; type: functional
[13] = molecular target: T2, E3 ubiquitin-protein ligase XIAP (Homo sapiens, UniProt P98170); experiment: Counter Screen using XIAP-Bir3 for Chemical Antagonists of Bir1/2 domains of IAP-family anti-apoptotic proteins. [Related pubchem assays (depositor defined):AID1018, AID1449, AID1514, AID1638, AID1749, AID1750, AID488957, AID488963]
[14] = molecular target: T2, E3 ubiquitin-protein ligase XIAP; experiment: small molecules displacing peptide from XIAP – biochemical, IAP family, fluorescence polarization (AID 1018); type: functional
[15] = molecular target: T3, Neuropeptide Y receptor type 1 (Homo sapiens, UniProt P25929); experiment: Fluorescence-based counterscreen for agonists of NPY-Y2: cell-based high-throughput dose response assay for agonists of NPY-Y1.; type: functional
T3 sequence (P25929 whole entry): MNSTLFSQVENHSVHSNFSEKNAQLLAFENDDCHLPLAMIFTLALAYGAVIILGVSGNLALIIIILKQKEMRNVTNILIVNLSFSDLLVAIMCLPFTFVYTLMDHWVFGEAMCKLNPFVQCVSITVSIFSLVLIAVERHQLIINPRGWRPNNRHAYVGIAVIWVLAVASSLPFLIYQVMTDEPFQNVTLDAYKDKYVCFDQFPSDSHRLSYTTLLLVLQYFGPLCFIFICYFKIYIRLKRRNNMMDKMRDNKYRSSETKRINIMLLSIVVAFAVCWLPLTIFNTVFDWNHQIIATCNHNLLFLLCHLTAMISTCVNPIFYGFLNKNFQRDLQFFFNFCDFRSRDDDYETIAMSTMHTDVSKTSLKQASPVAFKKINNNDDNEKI

[16] = molecular target: T4, Neuropeptide Y receptor type 2 (Homo sapiens, UniProt P49146); experiment: Fluorescence-based cell-based high-throughput dose response assay for agonists of NPY-Y2. [Related pubchem assays: 1703 (Screening assay (CNGC inhibitors).), 1359 (Screening assay (NPY-Y2 potentiators or agonists).), 1304 (Screening assay (NPY-Y1 potentiators or agonists).), 1710 (Screening assay (NPY-Y2 agonists).), 1791 (Summary AID.)]; type: functional
T4 sequence (P49146 whole entry): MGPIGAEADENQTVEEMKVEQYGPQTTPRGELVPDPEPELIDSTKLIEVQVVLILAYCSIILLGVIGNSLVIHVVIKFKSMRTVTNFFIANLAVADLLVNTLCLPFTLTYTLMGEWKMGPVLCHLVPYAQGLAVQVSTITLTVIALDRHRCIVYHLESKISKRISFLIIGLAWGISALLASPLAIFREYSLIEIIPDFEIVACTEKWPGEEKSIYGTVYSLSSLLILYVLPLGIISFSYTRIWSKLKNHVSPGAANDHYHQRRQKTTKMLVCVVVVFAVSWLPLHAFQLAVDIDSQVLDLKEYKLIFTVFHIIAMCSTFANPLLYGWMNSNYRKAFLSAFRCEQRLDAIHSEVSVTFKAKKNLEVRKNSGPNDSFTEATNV

[17] = test system: HEK293; experiment: Fluorescence-based counterscreen for potentiators or agonists of NPY-Y2: cell-based high-throughput dose response assay to identify inhibitors of cyclic nucleotide gated ion channel (CNGC) activity. In this assay, the parental HEK293 cell line transfected with a cyclic-nucleotide gated ion channel (CNGC)-based cAMP sensor is used to measure inhibition of isoproterenol-induced CNGC activity by test compound.; type: functional; conditions: Homo sapiens;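 also: stimulus is 1 µM isoproterenol at EC100 plus PDE inhibitor Ro 20-1724 at 25 µM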
[18] = test system: HeLa; experiment: Cytotoxicity counterscreen assay for transcriptional activators of heat shock protein 70 (Hsp70). [Related pubchem assays: 1203, 1252 ]; type: functional; conditions: Homo sapiens;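 also: cells exposed to compound for 16 hours before readout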
[19] = molecular target: Paired box protein Pax-8 (Homo sapiens, UniProt Q06710); experiment: PAX8 transcriptional activity inhibition in RMG-I – RMG-I cells, luciferase, cherry-pick, dose response (AID 687027); type: functional, cell-based;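 also: luciferase reporter driven by Pax8 target thyroperoxidase promoter measured by SteadyGlo luminescence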
[20] = CMV-driven luciferase expression suppression in HEK293 – cell-based, luminescence, dry powder, counter-screen for Pax8 inhibitor project, dose response (AID 743020); type: functional

T2 sequence (P98170 whole entry): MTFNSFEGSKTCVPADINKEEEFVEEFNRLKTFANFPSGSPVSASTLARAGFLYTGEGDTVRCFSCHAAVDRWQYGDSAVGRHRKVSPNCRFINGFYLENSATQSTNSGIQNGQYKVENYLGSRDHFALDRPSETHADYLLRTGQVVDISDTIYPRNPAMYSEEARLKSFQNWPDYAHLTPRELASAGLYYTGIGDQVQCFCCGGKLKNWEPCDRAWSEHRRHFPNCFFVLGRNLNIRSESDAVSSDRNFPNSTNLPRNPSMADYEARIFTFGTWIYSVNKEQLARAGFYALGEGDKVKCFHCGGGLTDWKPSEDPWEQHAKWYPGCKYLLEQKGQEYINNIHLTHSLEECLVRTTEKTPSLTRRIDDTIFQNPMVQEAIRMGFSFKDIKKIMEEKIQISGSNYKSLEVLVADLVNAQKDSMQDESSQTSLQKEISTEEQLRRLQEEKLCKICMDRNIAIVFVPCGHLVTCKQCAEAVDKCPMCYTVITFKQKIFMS
Sequence of Mucolipin-3 (Q8TDD5 whole entry): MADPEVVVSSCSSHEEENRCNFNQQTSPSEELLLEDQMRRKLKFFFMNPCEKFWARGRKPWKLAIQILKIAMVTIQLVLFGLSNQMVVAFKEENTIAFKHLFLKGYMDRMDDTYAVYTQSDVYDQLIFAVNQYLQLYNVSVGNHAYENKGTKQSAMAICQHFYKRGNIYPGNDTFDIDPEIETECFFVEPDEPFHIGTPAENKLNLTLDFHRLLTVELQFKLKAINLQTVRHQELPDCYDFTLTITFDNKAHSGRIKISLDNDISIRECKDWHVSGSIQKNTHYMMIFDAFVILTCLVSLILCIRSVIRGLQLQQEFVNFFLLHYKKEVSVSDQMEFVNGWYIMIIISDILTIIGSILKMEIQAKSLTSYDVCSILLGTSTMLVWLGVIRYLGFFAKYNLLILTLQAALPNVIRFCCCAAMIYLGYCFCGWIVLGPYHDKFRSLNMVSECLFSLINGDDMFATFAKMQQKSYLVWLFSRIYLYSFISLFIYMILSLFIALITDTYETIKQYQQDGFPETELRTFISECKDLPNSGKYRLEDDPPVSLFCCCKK
Sequence of Paired box protein Pax-8 (Q06710 whole entry): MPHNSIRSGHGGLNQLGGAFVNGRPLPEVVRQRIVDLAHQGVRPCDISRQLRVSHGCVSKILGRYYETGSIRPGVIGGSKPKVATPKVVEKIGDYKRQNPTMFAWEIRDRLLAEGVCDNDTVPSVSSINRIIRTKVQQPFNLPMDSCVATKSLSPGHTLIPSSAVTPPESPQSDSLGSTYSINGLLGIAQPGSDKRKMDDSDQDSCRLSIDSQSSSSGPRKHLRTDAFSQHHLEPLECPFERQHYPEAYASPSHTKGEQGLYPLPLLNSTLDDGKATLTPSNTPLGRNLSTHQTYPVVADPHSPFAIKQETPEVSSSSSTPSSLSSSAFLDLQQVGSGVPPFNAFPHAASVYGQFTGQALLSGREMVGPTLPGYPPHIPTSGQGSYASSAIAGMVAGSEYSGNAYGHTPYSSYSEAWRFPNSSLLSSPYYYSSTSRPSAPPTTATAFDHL
Sequence of Ion channel NompC (Q7T1G6 whole entry): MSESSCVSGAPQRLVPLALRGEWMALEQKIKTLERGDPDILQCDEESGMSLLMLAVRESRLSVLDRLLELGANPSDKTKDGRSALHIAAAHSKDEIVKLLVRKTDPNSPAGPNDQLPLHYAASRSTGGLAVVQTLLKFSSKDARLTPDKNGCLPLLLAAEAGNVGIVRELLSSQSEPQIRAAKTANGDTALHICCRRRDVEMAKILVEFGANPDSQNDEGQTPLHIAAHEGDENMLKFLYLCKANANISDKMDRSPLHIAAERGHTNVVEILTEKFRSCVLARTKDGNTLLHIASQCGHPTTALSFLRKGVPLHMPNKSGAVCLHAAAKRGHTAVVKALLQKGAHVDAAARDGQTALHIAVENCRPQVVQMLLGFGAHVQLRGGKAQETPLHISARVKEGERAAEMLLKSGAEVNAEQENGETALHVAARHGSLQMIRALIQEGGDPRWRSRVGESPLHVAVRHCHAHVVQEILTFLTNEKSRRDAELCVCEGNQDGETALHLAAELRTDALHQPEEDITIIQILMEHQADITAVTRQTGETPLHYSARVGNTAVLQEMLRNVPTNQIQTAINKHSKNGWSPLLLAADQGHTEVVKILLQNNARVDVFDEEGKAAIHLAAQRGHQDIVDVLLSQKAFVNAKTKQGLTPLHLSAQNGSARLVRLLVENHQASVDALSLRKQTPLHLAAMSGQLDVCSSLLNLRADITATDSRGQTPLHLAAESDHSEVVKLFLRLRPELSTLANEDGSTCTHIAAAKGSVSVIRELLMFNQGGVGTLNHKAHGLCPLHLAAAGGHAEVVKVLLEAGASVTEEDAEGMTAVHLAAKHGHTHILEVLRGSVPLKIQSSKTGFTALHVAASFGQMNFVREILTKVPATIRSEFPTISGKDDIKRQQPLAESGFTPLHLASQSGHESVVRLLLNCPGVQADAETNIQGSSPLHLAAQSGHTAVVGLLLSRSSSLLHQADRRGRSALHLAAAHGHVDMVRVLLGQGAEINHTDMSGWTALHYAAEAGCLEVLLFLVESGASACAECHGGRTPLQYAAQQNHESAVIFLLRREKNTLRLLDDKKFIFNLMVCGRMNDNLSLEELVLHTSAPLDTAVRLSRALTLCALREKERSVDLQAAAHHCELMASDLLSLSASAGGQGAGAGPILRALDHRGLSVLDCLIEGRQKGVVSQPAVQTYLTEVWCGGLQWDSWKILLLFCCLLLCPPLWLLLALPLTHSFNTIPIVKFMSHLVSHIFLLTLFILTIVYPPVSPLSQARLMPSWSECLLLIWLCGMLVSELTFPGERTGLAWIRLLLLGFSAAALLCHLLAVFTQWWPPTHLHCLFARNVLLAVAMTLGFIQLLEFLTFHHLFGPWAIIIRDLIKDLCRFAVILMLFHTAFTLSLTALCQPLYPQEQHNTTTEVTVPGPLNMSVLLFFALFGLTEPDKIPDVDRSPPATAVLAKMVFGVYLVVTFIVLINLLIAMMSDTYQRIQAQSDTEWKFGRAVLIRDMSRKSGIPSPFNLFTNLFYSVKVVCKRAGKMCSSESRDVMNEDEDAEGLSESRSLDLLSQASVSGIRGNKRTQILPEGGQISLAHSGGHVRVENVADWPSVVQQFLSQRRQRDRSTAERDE
Sequence of Photoreceptor-specific nuclear receptor (Q9Y5X4 whole entry, the tested form may be a part): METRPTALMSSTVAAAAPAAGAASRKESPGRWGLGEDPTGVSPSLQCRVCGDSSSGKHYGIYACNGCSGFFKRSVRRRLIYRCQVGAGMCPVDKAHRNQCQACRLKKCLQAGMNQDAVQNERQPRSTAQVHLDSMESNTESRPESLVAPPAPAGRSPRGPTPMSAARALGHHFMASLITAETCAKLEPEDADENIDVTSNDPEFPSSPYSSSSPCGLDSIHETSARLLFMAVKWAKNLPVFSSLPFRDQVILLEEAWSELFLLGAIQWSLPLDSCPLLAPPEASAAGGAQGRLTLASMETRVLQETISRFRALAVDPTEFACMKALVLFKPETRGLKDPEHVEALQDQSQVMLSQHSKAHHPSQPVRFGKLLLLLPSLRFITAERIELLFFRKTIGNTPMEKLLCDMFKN

With `O=C1NC(=O)N(c2ccc3c(c2)OCO3)C(=O)/C1=C\c1ccc(N2CCCCC2)o1` the IC50 [1] was > 55.7 µM (not active), the EC50 [2] was > 100 µM (active) and the IC50 [3] was 21 µM (not active).

With `Cc1ccsc1C(=O)OCC(=O)c1cc(C)n(CC2CCCO2)c1C` (stereo not given) the EC50 [4] was < 100 nM (active), the EC50 [5] was 900 nM (active) and the EC50 [6] was 3.3 µM (active). The EC50 [7] was 8.04 µM (active), the EC50 [8] was 325 nM (active) and the IC50 [9] was 6.9 µM (active). The EC50 [10] was 322 nM (active).

In the case of `CN(C1CCCCC1)S(=O)(=O)c1cccc(C(=O)OCC(=O)NC2CCCc3ccccc32)c1` (stereo not given), the EC50 [11] was > 29.9 µM (not active) and the EC50 [12] was 2.86 µM (active).

With `COc1ccc(C(=O)C2=C(O)C(=O)N(CC3CCCO3)C2c2cccc(OC)c2)cc1` (stereo not given) the IC50 [13] was > 100 µM (inactive) and the IC50 [14] was > 100 µM (not active).

For `O=C(/C=C/c1cn(-c2ccccc2)nc1-c1cccnc1)N1CCCC1`, the EC50 [15] was > 35.4 µM (not active), the EC50 [16] was > 35.4 µM (not active) and the EC50 [17] was > 35.4 µM (not active).

With `CCCC(=O)N1CCN(c2ccc(NC(=O)c3ccc([N+](=O)[O-])o3)cc2)CC1` the CC50 [18] was 6.29 µM (active), the AC50 [19] was 5.17 µM (active) and the AC50 [20] was 19.9 µM (active).

Source: ChEMBL document CHEMBL1201862, “PubChem BioAssay data set” (2004)
